Structures can show the parent of a compound that is named as a salt.

Data set [1] in a line: Test G: determination of in vitro stability in liver microsomes (human). The conditions noted are these: 37° C., up to 60 min, NADH/NADPH. In kind it is in vitro ADME. The procedure: (§1) Liver microsomes are prepared from Sprague-Dawley rats and human liver samples according to internal SOPs. The compounds are incubated at 37° C. at a total microsome protein concentration of 3 mg/mL in a 0.05 mol/L TRIS buffer at pH 7.4, in the presence of the cofactors NADH (2.5 mmol/L) and NADPH (0.8 mmol/L). The initial concentration of compound is 5 or 10 μmol/L. Samples are taken for analysis up to 60 minutes after the start of the incubation. The enzymatic activity in the collected sample is immediately stopped by adding 20% […] at a volume corresponding to 3.3% of the total sample volume. The concentration of compound remaining (FINAL CONC) in the 60 min. sample is determined by means of LCMS using a sample collected at zero time as reference (START CONC). The % of degraded thrombin inhibitor is calculated as: […]
On the technique in general: Liver microsomes are a subcellular fraction often used to study metabolism.

Data set [2] is described as follows: Test G: determination of in vitro stability in liver microsomes (rat). As to conditions: 37° C., up to 60 min, NADH/NADPH. In kind it is in vitro ADME. The procedure: as §1

With `NC(=NO)c1ccc(CNC(=O)[C@@H]2CCN2C(=O)[C@H](O)c2cc(Cl)cc(OC(F)F)c2)cc1` [Example 2, Ph(3-Cl)(5-OCHF2)—(R)CH(OH)C(O)-Aze-Pab(OH)], the “conversion to the corresponding active inhibitor (free amidine) in liver microsomes from humans” value in data set [1] is on record as “converted to the corresponding active inhibitor (free amidine)”. Also, in data set [2], the “conversion to the corresponding active inhibitor (free amidine) in liver microsomes from rats” value is “converted to the corresponding active inhibitor (free amidine)”.
`CO/N=C(\N)c1cc(F)c(CNC(=O)[C@@H]2CCN2C(=O)[C@H](O)c2cc(Cl)cc(OC(F)F)c2)c(F)c1` [Example 40, Ph(3-Cl)(5-OCHF2)—(R)CH(OH)C(O)-Aze-Pab(2,6-diF)(OMe)]: the “conversion to the corresponding active inhibitor (free amidine) in liver microsomes from humans” value in data set [1] is listed as “converted to the corresponding active inhibitor (free amidine)”. Moreover, the “conversion to the corresponding active inhibitor (free amidine) in liver microsomes from rats” value in data set [2] is reported as “converted to the corresponding active inhibitor (free amidine)”.
Regarding “Ph(3-Cl)(5-OCHF2)—(R)CH(OH)C(O)-Aze-Pab(OcBu) [Example 1]”, in data set [1], the “conversion to the corresponding active inhibitor (free amidine) in liver microsomes from humans” value is reported as “converted to the corresponding active inhibitor (free amidine)”. Besides, in data set [2], the “conversion to the corresponding active inhibitor (free amidine) in liver microsomes from rats” value was “converted to the corresponding active inhibitor (free amidine)”.
As for `CCON=C(N)c1ccc(CNC(=O)[C@@H]2CCN2C(=O)[C@H](O)c2cc(Cl)cc(OC(F)F)c2)cc1` [Example 43, Ph(3-Cl)(5-OCHF2)—(R)CH(OH)C(O)-Aze-Pab(OEt)], in data set [1], the “conversion to the corresponding active inhibitor (free amidine) in liver microsomes from humans” value is “converted to the corresponding active inhibitor (free amidine)”. Besides, in data set [2], the “conversion to the corresponding active inhibitor (free amidine) in liver microsomes from rats” value is on record as “converted to the corresponding active inhibitor (free amidine)”.
For `CON=C(N)c1ccc(CNC(=O)[C@@H]2CCN2C(=O)[C@H](O)c2cc(Cl)cc(OC(CF)CF)c2)cc1` [Example 24, Ph(3-Cl)(5-OCH(CH2F)2)—(R)CH(OH)C(O)-Aze-Pab(OMe)], the “conversion to the corresponding active inhibitor (free amidine) in liver microsomes from humans” value in data set [1] was “converted to the corresponding active inhibitor (free amidine)”. For the same compound, the “conversion to the corresponding active inhibitor (free amidine) in liver microsomes from rats” value in data set [2] is recorded as “converted to the corresponding active inhibitor (free amidine)”.
Regarding `CON=C(N)c1ccc(CNC(=O)[C@@H]2CCN2C(=O)[C@H](O)c2cc(F)cc(OC(F)F)c2)cc1` [Example 26, Ph(3-F)(5-OCHF2)—(R)CH(OH)C(O)-Aze-Pab(OMe)], the “conversion to the corresponding active inhibitor (free amidine) in liver microsomes from humans” value in data set [1] was “converted to the corresponding active inhibitor (free amidine)”. Also, the “conversion to the corresponding active inhibitor (free amidine) in liver microsomes from rats” value in data set [2] was “converted to the corresponding active inhibitor (free amidine)”.
As to `CON=C(N)c1ccc(CNC(=O)[C@@H]2CCCN2C(=O)[C@H](O)c2cc(Cl)cc(OC(F)F)c2)cc1` [Example 33, Ph(3-Cl)(5-OCHF2)—(R)CH(OH)—C(O)-Pro-Pab(OMe)], the “conversion to the corresponding active inhibitor (free amidine) in liver microsomes from humans” value in data set [1] is “converted to the corresponding active inhibitor (free amidine)”. Besides, the “conversion to the corresponding active inhibitor (free amidine) in liver microsomes from rats” value in data set [2] is listed as “converted to the corresponding active inhibitor (free amidine)”.
In the case of `CC(C)ON=C(N)c1ccc(CNC(=O)[C@@H]2CCN2C(=O)[C@H](O)c2cc(Cl)cc(OC(F)F)c2)cc1` [Example 45, Ph(3-Cl)(5-OCHF2)—(R)CH(OH)C(O)-Aze-Pab(OiPr)], in data set [1], the “conversion to the corresponding active inhibitor (free amidine) in liver microsomes from humans” value is “converted to the corresponding active inhibitor (free amidine)”. In addition, the “conversion to the corresponding active inhibitor (free amidine) in liver microsomes from rats” value in data set [2] is on record as “converted to the corresponding active inhibitor (free amidine)”.
Take `CON=C(N)c1ccc(CNC(=O)[C@@H]2CCN2C(=O)[C@H](O)c2cc(Cl)cc(OCC(F)(F)F)c2)cc1` [Example 16, Ph(3-Cl)(5-OCH2CF3)—(R)CH(OH)C(O)-Aze-Pab(OMe)]: the “conversion to the corresponding active inhibitor (free amidine) in liver microsomes from humans” value in data set [1] is “converted to the corresponding active inhibitor (free amidine)”. In data set [2], the “conversion to the corresponding active inhibitor (free amidine) in liver microsomes from rats” value is on record as “converted to the corresponding active inhibitor (free amidine)”.
`CO/N=C(\N)c1cnc(CNC(=O)[C@@H]2CCN2C(=O)[C@H](O)c2cc(Cl)cc(OC(F)F)c2)nc1` [Example 37, Ph(3-Cl)(5-OCHF2)—(R)CH(OH)C(O)-Aze-NH—CH2-((5-methoxyamidino)-2-pyrimidinyl)]: the “conversion to the corresponding active inhibitor (free amidine) in liver microsomes from humans” value in data set [1] is “converted to the corresponding active inhibitor (free amidine)”. Besides, in data set [2], the “conversion to the corresponding active inhibitor (free amidine) in liver microsomes from rats” value was “converted to the corresponding active inhibitor (free amidine)”.
In the case of `CON=C(N)c1ccc(CNC(=O)[C@@H]2CCN2C(=O)[C@H](O)c2cc(Cl)cc(OCCF)c2)cc1` [Example 22, Ph(3-Cl)(5-OCH2CH2F)—(R)CH(OH)C(O)-Aze-Pab(OMe)], the “conversion to the corresponding active inhibitor (free amidine) in liver microsomes from humans” value in data set [1] was “converted to the corresponding active inhibitor (free amidine)”. Moreover, in data set [2], the “conversion to the corresponding active inhibitor (free amidine) in liver microsomes from rats” value is “converted to the corresponding active inhibitor (free amidine)”.
On to “Ph(3-Br)(5-OCHF2)—(R)CH(OH)C(O)-Aze-Pab(OMe) [Example 29]”, for which, in data set [1], the “conversion to the corresponding active inhibitor (free amidine) in liver microsomes from humans” value is “converted to the corresponding active inhibitor (free amidine)”. The “conversion to the corresponding active inhibitor (free amidine) in liver microsomes from rats” value in data set [2] is reported as “converted to the corresponding active inhibitor (free amidine)”.
As for `CON=C(N)c1ccc(CNC(=O)[C@@H]2CCN2C(=O)[C@H](O)c2cc(Cl)cc(OCC(F)F)c2)cc1` [Example 18, Ph(3-Cl)(5-OCH2CHF2)—(R)CH(OH)C(O)-Aze-Pab(OMe)], the “conversion to the corresponding active inhibitor (free amidine) in liver microsomes from humans” value in data set [1] is “converted to the corresponding active inhibitor (free amidine)”. In addition, in data set [2], the “conversion to the corresponding active inhibitor (free amidine) in liver microsomes from rats” value is given as “converted to the corresponding active inhibitor (free amidine)”.
`CON=C(N)c1ccc(CNC(=O)[C@@H]2CCN2C(=O)[C@H](O)c2cc(Cl)cc(OCF)c2)cc1` [Example 20, Ph(3-Cl)(5-OCH2F)—(R)CH(OH)C(O)-Aze-Pab(OMe)]: in data set [1], the “conversion to the corresponding active inhibitor (free amidine) in liver microsomes from humans” value is “converted to the corresponding active inhibitor (free amidine)”. The “conversion to the corresponding active inhibitor (free amidine) in liver microsomes from rats” value in data set [2] was “converted to the corresponding active inhibitor (free amidine)”.
On to `CON=C(N)c1ccc(CNC(=O)[C@@H]2CCN2C(=O)[C@H](O)c2cc(Cl)cc(OC(F)(F)F)c2)cc1` [Example 7, Ph(3-Cl)(5-OCF3)—(R)CH(OH)C(O)-Aze-Pab(OMe)], for which the “conversion to the corresponding active inhibitor (free amidine) in liver microsomes from humans” value in data set [1] was “converted to the corresponding active inhibitor (free amidine)”. The “conversion to the corresponding active inhibitor (free amidine) in liver microsomes from rats” value in data set [2] is listed as “converted to the corresponding active inhibitor (free amidine)”.
For the compound `N=C(N)c1cnc(CNC(=O)[C@@H]2CCN2C(=O)[C@H](O)c2cc(Cl)cc(OC(F)F)c2)nc1` (as salt: TFA) [Example 36, Ph(3-Cl)(5-OCHF2)—(R)CH(OH)C(O)-Aze-NH—CH2-((5-amidino)-2-pyrimidinyl)], the melting point is 86 to 87 °C.
Turning to `CON=C(N)c1ccc(CNC(=O)[C@@H]2CCN2C(=O)[C@H](O)c2cc(Cl)cc(OC(F)F)c2)cc1` [Example 12, Ph(3-Cl)(5-OCHF2)—(R)CH(OH)C(O)-Aze-Pab(OMe)], in data set [1], the “conversion to the corresponding active inhibitor (free amidine) in liver microsomes from humans” value is “converted to the corresponding active inhibitor (free amidine)”. The “conversion to the corresponding active inhibitor (free amidine) in liver microsomes from rats” value in data set [2] is “converted to the corresponding active inhibitor (free amidine)”.
Regarding `CON=C(N)c1ccc(CNC(=O)[C@@H]2CCN2C(=O)[C@H](CO)c2cc(Cl)cc(OC(F)(F)F)c2)cc1` [Example 11, Ph(3-Cl)(5-OCF3)—(S)CH(CH2OH)C(O)-Aze-Pab(OMe)], in data set [1], the “conversion to the corresponding active inhibitor (free amidine) in liver microsomes from humans” value is “converted to the corresponding active inhibitor (free amidine)”. In data set [2], the “conversion to the corresponding active inhibitor (free amidine) in liver microsomes from rats” value is “converted to the corresponding active inhibitor (free amidine)”.

The melting point is the temperature of the solid-liquid transition.

The values above are taken from patent US7645751B2, “Mandelic acid derivatives and their use as thrombin inhibitors” (AstraZeneca, priority 2000, dated 2010).
